From PMC5488252, “Specificity Effects of Amino Acid Substitutions in Promiscuous Hydrolases: Context‐Dependence of Catalytic Residue Contributions to Local Fitness Landscapes in Nearby Sequence Space” (Chembiochem, 2017)
Counter-ions that a name gives are not always drawn.

How the values were obtained:
AkAS = assay type: biochemical; conditions: 30 °C
SaAS = tested on: T1, SaAS; assay: 4-nitrophenolate release at […] nm; assay type: biochemical; conditions: 30 °C; Bis-Tris propane or SID buffer
T1 construct: pASK-IBA5plus (Strep-tag), E. coli TOP10; source organism not spelt out in this text

## O=[N+]([O-])c1ccc(OP(=O)(O)O)cc1 [compound 1, phosphate monoester 1]
AkAS
  Km: 17 mM

## O=[N+]([O-])c1ccc(OS(=O)(=O)O)cc1 [compound 4, sulfate monoester 4]
SaAS
  Km: 0.24 mM
